Test results from patent publication US6548666B1, “Tricyclic compounds and their use in medicine process for their preparation and pharmaceutical compositions containing them” (Dr. Reddy's Research Foundation, priority 1997, dated 2003).

Tests used:
hPPARα = target: T1, hPPARα (Homo sapiens, UniProt Q07869); experiment: Determination of hPPARα activity (GAL4 fusion luciferase reporter, HEK-293); type: cell-based; details: 50 μM compound; HEK-293 cells, GAL4-hPPARα LBD reporter
T1 construct: expressed in transfected cells; host or cells: HEK-293
T1 sequence (Q07869 239-466 limits assumed): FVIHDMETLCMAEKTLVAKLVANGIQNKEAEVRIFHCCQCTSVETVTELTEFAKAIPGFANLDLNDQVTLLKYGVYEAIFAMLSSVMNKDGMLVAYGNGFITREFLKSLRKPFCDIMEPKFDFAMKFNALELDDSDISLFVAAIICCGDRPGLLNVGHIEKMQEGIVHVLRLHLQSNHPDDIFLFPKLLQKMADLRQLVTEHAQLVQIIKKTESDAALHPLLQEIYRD
Method: (§1) Ligand binding domain of hPPARα was fused to DNA binding domain of Yeast transcription factor GAL4 in eucaryotic expression vector. Using superfect (Qiagen, Germany) as transfecting reagent HEK-293 cells were transfected with this plasmid and a reporter plasmid harboring the luciferase gene driven by a GAL4 specific promoter. Compound was added at different concentrations after 42 hrs of transfection and incubated overnight.

hPPARγ1 = target: T2, hPPARγ1 (Homo sapiens, UniProt P37231); experiment: Determination of hPPARγ activity (GAL4 fusion luciferase reporter, HEK-293); type: cell-based; details: 1 μM compound; HEK-293 cells, GAL4-hPPARγ1 LBD reporter
T2 construct: expressed in transfected cells; host or cells: HEK-293
T2 sequence (P37231 238-503 limits assumed): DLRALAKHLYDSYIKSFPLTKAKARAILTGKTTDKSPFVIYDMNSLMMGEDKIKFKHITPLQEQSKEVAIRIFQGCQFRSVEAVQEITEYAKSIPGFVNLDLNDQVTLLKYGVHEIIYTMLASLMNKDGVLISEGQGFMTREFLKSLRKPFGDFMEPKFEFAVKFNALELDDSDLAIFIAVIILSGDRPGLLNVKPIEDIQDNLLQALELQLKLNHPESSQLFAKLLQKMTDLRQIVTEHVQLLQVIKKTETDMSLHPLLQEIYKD
Method: as §1, with “hPPARγ1” for “hPPARα”, “lipofectamine (Gibco BRL, USA)” for “superfect (Qiagen, Germany)”, “1 μM concentration” for “different concentrations”, “48” for “42”

C57BL/KsJ-db/db mice = experiment: Blood sugar and triglyceride lowering in db/db mice; type: in vivo, mouse
Text: Mutation in colonies of laboratory animals and different sensitivities to dietary regimens have made the development of animal models with non-insulin dependent diabetes and hyperlipidemia associated with obesity and insulin resistance possible. Genetic models such as db/db and ob/ob (Diabetes, (1982) 31 (1): 1-6) mice and zucker fa/fa rates have been developed by the various laboratories for understanding the pathophysiology of disease and testing the efficacy of new antidiabetic compounds (Diabetes, (1983) 32: 830-838; Annu. Rep. Sankyo Res. Lab. (1994). 46: 1-57). The homozygous animals, C57 BL/KsJ-db/db mice developed by Jackson Laboratory, U.S., are obese, hyperglycemic, hyperinsulinemic and insulin resistant (J. Clin. Invest., (1990) 85: 962-967), whereas heterozygous are lean and normoglycemic. In db/db model, mouse progressively develops insulinopenia with age, a feature commonly observed in late stages of human type II diabetes when blood sugar levels are insufficiently controlled. The state of pancreas and its course vary according to the models. Since this model resembles that of type II diabetes mellitus, the compounds of the present invention were tested for blood sugar and triglycerides lowering activities.
Male C57BL/KsJ-db/db mice of 8 to 14 weeks age, having body weight range of 35 to 60 grams, bred at Dr. Reddy's Research Foundation (DRF) animal house, were used in the experiment. The mice were provided with standard feed (National Institute of Nutrition (NIN), Hyderabad, India) and acidified water, ad libitum. The animals having more than 350 mg/dl blood sugar were used for testing. The number of animals in each group was 4.
Test compounds were suspended on 0.25% carboxymethyl cellulose and administered to test group at a dose of 0.1 mg to 30 mg/kg through oral gavage daily for 6 days. The control group received vehicle (dose 10 mL/kg). On 6 th day the blood samples were collected one hour after administration of test compounds/vehicle for assessing the biological activity.
The random blood sugar and triglyceride levels were measured by collecting blood ([…]) through orbital sinus, using heparinised capillary in tubes containing EDTA which was centrifuged to obtain plasma. The plasma glucose and triglyceride levels were measured spectrometrically, by glucose oxidase and glycerol-3-PO4 oxidase/peroxidase enzyme (Dr. Reddy's Lab. Diagnostic Division Kits, Hyderabad, India) methods respectively.
The blood sugar and triglycerides lowering activities of the test compound was calculated according to the formula.
(§2) 1. Percent reduction in Blood sugar/triglycerides/total cholesterol were calculated according to the formula: [formula]

Swiss albino mice = experiment: Plasma triglyceride lowering activity in Swiss albino mice and Guinea pigs; type: in vivo, mouse; details: dose 1 mg (mg/kg), oral, 6 days; table follows the Swiss albino mice / Guinea pig section
Method: Male Swiss albino mice (SAM) and male Guinea pigs were obtained from NIN and housed in DRF animal house. All these animals were maintained under 12 hour light and dark cycle at 25±1° C. Animals were given standard laboratory chow (NIN, Hyderabad, India) and water, ad libitum, SAM of 20-25 g body weight range and Guinea pigs of 500-700 g body weight range were used (Oliver, P., Plancke, M. O., Marzin. D., Clavey, V., Sauzieres, J and Fruchart, J. C. Effects of fenofibrate, gemfibrozil and nicotinic acid on plasma lipoprotein levels in normal and hyperlipidemic mice. Atherosclerosis. 1988. 70: 107-114).
The test compounds were administered orally to Swiss albino mice at 0.3 to 30 mg/kg/day dose for 6 days. Control mice were treated with vehicle (0.25% Carboxymethylcellulose; dose 10 mL/kg). The test compounds were administered orally to Guinea pigs at 0.3 to 30 mg/kg/day dose for 6 days. Control animals were treated with vehicle (0.25% Carboxymethylcellulose; dose 5 mL/kg).
The blood samples were collected in fed state 1 hour after drug administration on 0 and 6 day of treatment. The blood was collected from the retro-orbital sinus through heparinised capillary in EDTA containing tubes. After centrifugation, plasma sample was separation for triglyceride and total cholesterol (Wieland, O. Methods of Enzymatic analysis. Bergemeyer, H. O., Ed., 1963. 211-214; Trinder, P. Ann. Clin. Biochem. 1969. 6: 24-27). Measurement of plasma triglyceride, total cholesterol and HDL were done using commercial kits (Dr. Reddy's Diagnostic Division, Hyderabad, India).
as §2

[1] = 10 mg/kg oral gavage daily for 6 days
[2] = 3 mg/kg oral gavage daily for 6 days
[3] = 1 mg/kg oral gavage daily for 6 days

Compound | PPARα (fold activation, luciferase activity) (hPPARα) [Fold] | PPARγ (fold activation, luciferase activity) (hPPARγ1) [Fold] | Reduction in Blood Glucose Level (%) (C57BL/KsJ-db/db mice; [3]) | Triglyceride Lowering (%) (C57BL/KsJ-db/db mice; [3]) | Triglyceride Lowering (%) (Swiss albino mice) | other results
CCOC(Cc1ccc(OCCN2c3ccccc3Sc3ccccc32)cc1)C(=O)O (racemic) [Example 11, (±) 3-[4-[2-(Phenothiazin-10-yl)ethoxy]phenyl]-2-ethoxypropanoic acid] | 6.42 | 5.20 | – | – | – | Reduction in Blood Glucose Level (%) (C57BL/KsJ-db/db mice; [1]): 66%; Triglyceride Lowering (%) (C57BL/KsJ-db/db mice; [1]): 50%
CCOC(Cc1ccc2oc(CN3c4ccccc4Sc4ccccc43)cc2c1)C(=O)[O-].[Na+] (racemic) [Example 14, (±) 3-[2-(Phenothiazin-10-yl)methylbenzofuran-5-yl]-2-ethoxypropanoic acid, sodium salt] | – | – | – | – | – | Reduction in Blood Glucose Level (%) (C57BL/KsJ-db/db mice; [2]): 52%; Triglyceride Lowering (%) (C57BL/KsJ-db/db mice; [2]): 61%
CC(Cc1ccc(OCCN2c3ccccc3Oc3ccccc32)cc1)(Oc1ccccc1)C(=O)[O-].[Na+] (racemic) [Example 30, (±)3-[4-[2-(Phenoxazin-10-yl)ethoxy]phenyl]-2-phenoxy-2-methylpropanoic acid, sodium salt] | 9.3 | 13.9 | 44 | 05 | 58 | –
CCOC(Cc1ccc(OCCN2c3ccccc3Oc3ccccc32)cc1)C(=O)O.N=C(N)NCCC[C@H](N)C(=O)O (single isomer, unassigned; (-)) [Example 28, (−) 3-[4-[2-(Phenoxazin-10-yl)ethoxy]phenyl]-2-ethoxypropanoic acid, arginine salt] | – | – | 40 | 40 | 22 | –
(−) 3-[4-[2-(Phenoxazin-10-yl)ethoxy]phenyl]-2-ethoxypropanoic acid, magnesium salt [Example 25] | – | – | – | – | 6 | –
